According to publication PMC11101759, “Inhibitors of dermatan sulfate epimerase 1 decreased accumulation of glycosaminoglycans in mucopolysaccharidosis type I fibroblasts” (Glycobiology, 2024):

How the values were obtained:
[1] = target: T1, DS-epi1 (truncated form, amino acid 23–775-HIS) (Homo sapiens, UniProt Q9UL01); experiment: DS-epi1 epimerase activity assay; type: biochemical
T1 construct: gene DSE; truncated, residues 23-775, HIS tag

[2] = target: T2, HSepi; heparan sulfate glucuronyl C-5 epimerase (GLCE) (Homo sapiens, UniProt O94923); experiment: HSepi epimerase activity assay, lysate of transfected […]HEK; type: biochemical; details: read-out: % inhibition at 1,000 μM
T2 sequence (O94923 29-617): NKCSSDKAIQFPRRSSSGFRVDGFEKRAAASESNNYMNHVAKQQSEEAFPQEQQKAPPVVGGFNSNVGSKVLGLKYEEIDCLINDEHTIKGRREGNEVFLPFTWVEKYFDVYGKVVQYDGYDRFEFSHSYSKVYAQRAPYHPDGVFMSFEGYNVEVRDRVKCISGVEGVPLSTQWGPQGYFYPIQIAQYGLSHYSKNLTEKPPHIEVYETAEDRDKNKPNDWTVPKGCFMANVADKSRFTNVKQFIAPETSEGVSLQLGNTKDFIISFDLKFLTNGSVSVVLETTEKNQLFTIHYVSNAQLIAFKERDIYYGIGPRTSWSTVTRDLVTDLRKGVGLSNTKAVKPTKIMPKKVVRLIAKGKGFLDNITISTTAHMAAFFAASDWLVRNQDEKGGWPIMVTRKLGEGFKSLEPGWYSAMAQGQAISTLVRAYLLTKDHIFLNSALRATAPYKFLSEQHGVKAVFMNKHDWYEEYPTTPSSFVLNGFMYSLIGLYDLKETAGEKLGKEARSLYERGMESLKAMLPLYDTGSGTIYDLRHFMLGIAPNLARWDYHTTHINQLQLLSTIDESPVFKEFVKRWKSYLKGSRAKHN

| IC50 [1] [µM] | inhibition at 1000 µM [2] [%] | SMILES |
| --- | --- | --- |
| 12 | 69 | CN(c1cc(-c2ccccc2)nc(SCc2ccc(C(=O)O)o2)n1)C1CCCCC1 [compound 3, inhibitor 3] |
| 16 | 47 | CCCN(C)c1cc(-c2ccccc2)nc(SCc2cccc(C(=O)O)c2)n1 [compound 11, inhibitor 11] |
